Measured values published in patent US20040175352A1, “Microbicidal compositions including an ionene polymer and 2,4,4-trichloro-2-hydroxydiphenyl ether, and methods of using the same” (priority 2003, published 2004).
Where “and” joins values, the source holds several entries; their conditions need not be identical. Identical values can stand only once.

Key:
Assay type in all cases: cell-based
Chlorella sp. = test: Algal evaluation, Chlorella sp. growth prevention (end point, Kull synergism); details: lowest concentration completely preventing growth for three or four weeks, modified Allen's medium pH 7.8, 25° C., 180 ft-candle
Description: The medium used for testing the effectiveness of the invention against algae was modified Allen's medium (see Allen, A. A., Simple conditions for growth of unicellular blue-green algae on plates, JOURNAL OF PHYCOLOGY. 4:1-4 […]). To make modified Allen's medium, the following six individual stock solutions in g/200 ml of deionized water were first prepared: 1.50 g of K2HPO4; 1.50 g of MgSO4.7H20; 0.80 g Na2CO3; 0.5 g CaCl2.2H2O; 1.16 g Na2SiO3.9H2O; 1.20 g citric acid. A micronutrient stock solution was also prepared by adding the following ingredients to 1 liter of deionized water: 0.75 g of Na2EDTA; 0.097 g FeCl3.6H2O; 0.041 g of MnCl2.4H2O; 0.005 g ZnCl2; 0.002 g CoCl2.6H2O; 0.004 g Na2MoO4.2H2O. To make the final modified Allen's medium, the following ingredients and the stock solutions, prepared from above, were combined in a flask and then made up to 1 liter with deionized water: 1.5 g NaNO3; 5 ml K2HPO4; 5 ml MgSO4.7H2O; 5 ml Na2CO3; 10 ml CaCl2.2H2O; 10 ml Na2SiO3.9H2O; 1 ml citric acid; and 1 ml micronutrient stock solution. The pH was adjusted to 7.8. Then the medium was dispensed in 5 ml amounts in test tubes and autoclaved at 121° C. for 20 minutes. After autoclaving, the biocides were added to the medium in the desired concentrations. […]

Klebsiella pneumoniae = test: Bacterial evaluation, Klebsiella pneumoniae growth prevention (end point, Kull synergism); details: lowest concentration completely preventing growth for 24 or 48 hours, nutrient broth, 30° C.
Description: (§1) Nutrient broth (2.5 g/liter of deionized water) was prepared. This was distributed in 5 ml amounts in test tubes and autoclaved at 121° C. for 20 minutes. After addition of the biocides in the desired concentrations to the nutrient broth, 100 microliters of a 24-hour grown suspension of Pseudomonas aeruginosa or Klebsiella pneumoniae cells of approximately 9.3×10^8 cfu/ml were added and incubated at 30° C. for 24 or 48 hours.
(§2) (Busan® 77), poly[hydroxyethylene-(dimethyliminio)-2-hydroxypropylene(dimethyliminio)methylene dichloride] (Busan® 1055 or APCA), or a cross-linked terpolymer of dimethylamine, epichlorohydrin and ethylenediamine (Busan® 1157), (designated component A), and triclosan (designated component B) in a series of tests in varying ratios and a range of concentrations against the fungi Trichoderma viride, and Aspergillus niger, the bacteria Pseudomonas aeruginosa and Klebsiella pneumoniae, and the alga Chlorella sp. using the methods described above.
(§3) End points for the various mixtures were then compared with the end points for the pure active ingredients alone in concomitantly prepared flasks or test tubes.
(§4) Qa=Concentration of compound A in parts per million, acting alone, which produced an end point.
(§5) Qb=Concentration of compound B in parts per million, acting alone, which produced an end point. […]

Pseudomonas aeruginosa = test: Bacterial evaluation, Pseudomonas aeruginosa growth prevention (end point, Kull synergism)
Description: as §1, §2, §3, §4, §5

Trichoderma viride = test: Fungal evaluation, Trichoderma viride growth prevention (end point, Kull synergism); details: lowest concentration completely preventing growth for seven days, mineral salts-glucose medium pH 6, 25° C.
Description: Mineral salts-glucose medium was used. To prepare the medium, the following ingredients were added to 1 liter of deionized water: 0.7 g of KH2PO4; 0.7 g of MgSO4.7H2O; 1.0 g of HN4NO3; 0.005 g of NaCl; 0.002 g of FeSO4.7H20; 0.002 g ZnSO4.7H2O; 0.001 g of MnSO4.7H2O; 10 g of Glucose. The pH of the medium was adjusted to 6 with 1N NaOH. The medium was distributed in 5 ml amounts in test tubes and autoclaved at 121° C. for 20 minutes. The fungus, Trichoderma viride or Aspergillus niger, was grown on potato dextrose agar slant for 5 to 10 days and a spore suspension prepared by washing down the spores from the slant into a sterile saline solution. After addition of the biocides in the desired concentrations in the sterile mineral salts-glucose medium, the fungal spore suspension was added. The final spore concentration was approximately 10^6 cfu/ml. The inoculated media was incubated at 25° C. for 7 days.
(Busan® 77), poly[hydroxyethylene-(dimethyliminio)-2-hydroxypropylene(dimethyliminio)methylene dichloride] […]

Oc1cc(Cl)ccc1Oc1ccc(Cl)cc1Cl [Triclosan, 2,4,4′-tricloro-2′-hydroxydiphenyl ether]
Ob, quantity producing end point: concentration of component B (triclosan) acting alone (Chlorella sp.): 0.5 ppm and 0.6 ppm | Ob, quantity producing end point: concentration of component B (triclosan) acting alone (Klebsiella pneumoniae): 0.5 ppm | Ob, quantity producing end point: concentration of component B (triclosan) acting alone (Pseudomonas aeruginosa; Pseudomonas aeruginosa, lowest concentration completely preventing growth for 24 or 48 hours, nutrient broth, 30° C.): >500 ppm | effectiveness against Pseudomonas sp. when used individually (Pseudomonas aeruginosa; Pseudomonas sp., component used individually): ineffective | Ob, quantity producing end point: concentration of component B (triclosan) acting alone (Trichoderma viride): 25 ppm
